Assay results from PubChem BioAssay (NCI).
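Following 48 hours of exposure in 96-well plates, responses at five concentrations were used to interpolate endpoints linearly. GI50 = concentration required for 50% inhibition of growth. At the TGI there is no net growth.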

Assays:
Assay in all cases: NCI tumour cell line growth inhibition, 48 h
786-0 renal = system: 786-0 renal
A498 renal = system: A498 renal
A549 NSCLC = system: A549 NSCLC
ACHN renal = system: ACHN renal
BT-549 breast = system: BT-549 breast
CAKI-1 renal = system: CAKI-1 renal
CCRF-CEM leukemia = system: CCRF-CEM leukemia
COLO 205 colon = system: COLO 205 colon
DU-145 prostate = system: DU-145 prostate
EKVX NSCLC = system: EKVX NSCLC
HCC-2998 colon = system: HCC-2998 colon
HCT-116 colon = system: HCT-116 colon
HCT-15 colon = system: HCT-15 colon
HL-60(TB) leukemia = system: HL-60(TB) leukemia
HOP-62 NSCLC = system: HOP-62 NSCLC
HOP-92 NSCLC = system: HOP-92 NSCLC
HS 578T breast = system: HS 578T breast
HT29 colon = system: HT29 colon
IGROV1 ovarian = system: IGROV1 ovarian
K-562 leukemia = system: K-562 leukemia
KM12 colon = system: KM12 colon
LOX IMVI melanoma = system: LOX IMVI melanoma
M14 melanoma = system: M14 melanoma
MALME-3M melanoma = system: MALME-3M melanoma
MCF7 breast = system: MCF7 breast
MDA-MB-231 breast = system: MDA-MB-231 breast
MDA-MB-435 = system: MDA-MB-435
MDA-MB-468 breast = system: MDA-MB-468 breast
MOLT-4 leukemia = system: MOLT-4 leukemia
NCI-H226 lung = system: NCI-H226 lung
NCI-H23 lung = system: NCI-H23 lung
NCI-H460 lung = system: NCI-H460 lung
NCI-H522 lung = system: NCI-H522 lung
NCI/ADR-RES ovarian = system: NCI/ADR-RES ovarian
OVCAR-3 ovarian = system: OVCAR-3 ovarian
OVCAR-4 ovarian = system: OVCAR-4 ovarian
OVCAR-5 ovarian = system: OVCAR-5 ovarian
OVCAR-8 ovarian = system: OVCAR-8 ovarian
PC-3 prostate = system: PC-3 prostate
RPMI-8226 leukemia = system: RPMI-8226 leukemia
RXF 393 renal = system: RXF 393 renal
SF-268 CNS = system: SF-268 CNS
SF-295 CNS = system: SF-295 CNS
SF-539 CNS = system: SF-539 CNS
SK-MEL-2 melanoma = system: SK-MEL-2 melanoma
SK-MEL-28 melanoma = system: SK-MEL-28 melanoma
SK-MEL-5 melanoma = system: SK-MEL-5 melanoma
SK-OV-3 ovarian = system: SK-OV-3 ovarian
SN12C renal = system: SN12C renal
SNB-19 CNS = system: SNB-19 CNS
SNB-75 CNS = system: SNB-75 CNS
SR leukemia = system: SR leukemia
SW-620 colon = system: SW-620 colon
T-47D breast = system: T-47D breast
TK-10 renal = system: TK-10 renal
U251 CNS = system: U251 CNS
UACC-257 melanoma = system: UACC-257 melanoma
UACC-62 melanoma = system: UACC-62 melanoma
UO-31 renal = system: UO-31 renal

Structure (SMILES): CC(=C(c1ccc(OCCN2CCCCC2)cc1)c1ccc(OCCN2CCCCC2)cc1)c1ccccc1
- GI50 (786-0 renal): 3.39 µM
- TGI (786-0 renal): 6.91 µM
- GI50 (A498 renal): > 21.8 µM
- TGI (A498 renal): > 21.8 µM
- GI50 (A549 NSCLC): 5.91 µM
- TGI (A549 NSCLC): > 21.8 µM
- GI50 (ACHN renal): 5.2 µM
- TGI (ACHN renal): 17.2 µM
- GI50 (BT-549 breast): > 21.8 µM
- TGI (BT-549 breast): > 21.8 µM
- GI50 (CAKI-1 renal): 5.01 µM
- TGI (CAKI-1 renal): > 21.8 µM
- GI50 (CCRF-CEM leukemia): 5.2 µM
- TGI (CCRF-CEM leukemia): 21.7 µM
- GI50 (COLO 205 colon): 3.53 µM
- TGI (COLO 205 colon): 7.61 µM
- GI50 (DU-145 prostate): 12.4 µM
- TGI (DU-145 prostate): > 21.8 µM
- GI50 (EKVX NSCLC): > 21.8 µM
- TGI (EKVX NSCLC): > 21.8 µM
- GI50 (HCC-2998 colon): 4.7 µM
- TGI (HCC-2998 colon): 21 µM
- GI50 (HCT-116 colon): 3.43 µM
- TGI (HCT-116 colon): 10.1 µM
- GI50 (HCT-15 colon): 4.98 µM
- TGI (HCT-15 colon): > 21.8 µM
- GI50 (HL-60(TB) leukemia): 2670 nM
- TGI (HL-60(TB) leukemia): 7.09 µM
- GI50 (HOP-62 NSCLC): 6.45 µM
- TGI (HOP-62 NSCLC): > 21.8 µM
- GI50 (HOP-92 NSCLC): 5.01 µM
- TGI (HOP-92 NSCLC): > 21.8 µM
- GI50 (HS 578T breast): 3.33 µM
- TGI (HS 578T breast): 10.9 µM
- GI50 (HT29 colon): 3.77 µM
- TGI (HT29 colon): 11.7 µM
- GI50 (IGROV1 ovarian): 9.78 µM
- TGI (IGROV1 ovarian): > 21.8 µM
- GI50 (K-562 leukemia): 3.26 µM
- TGI (K-562 leukemia): > 21.8 µM
- GI50 (KM12 colon): 8.17 µM
- TGI (KM12 colon): > 21.8 µM
- GI50 (LOX IMVI melanoma): 3.48 µM
- TGI (LOX IMVI melanoma): 6.59 µM
- GI50 (M14 melanoma): 3.95 µM
- TGI (M14 melanoma): 8.32 µM
- GI50 (MALME-3M melanoma): 3.38 µM
- TGI (MALME-3M melanoma): 6.31 µM
- GI50 (MCF7 breast): 625 nM
- TGI (MCF7 breast): 4.98 µM
- GI50 (MDA-MB-231 breast): 4 µM
- TGI (MDA-MB-231 breast): 9.17 µM
- GI50 (MDA-MB-435): 3.25 µM
- TGI (MDA-MB-435): 6.88 µM
- GI50 (MDA-MB-468 breast): 3.79 µM
- TGI (MDA-MB-468 breast): 9.45 µM
- GI50 (MOLT-4 leukemia): 4.15 µM
- TGI (MOLT-4 leukemia): 12.9 µM
- GI50 (NCI-H226 lung): > 21.8 µM
- TGI (NCI-H226 lung): > 21.8 µM
- GI50 (NCI-H23 lung): 12.5 µM
- TGI (NCI-H23 lung): > 21.8 µM
- GI50 (NCI-H460 lung): 4.1 µM
- TGI (NCI-H460 lung): 9.98 µM
- GI50 (NCI-H522 lung): 3.26 µM
- TGI (NCI-H522 lung): 7.85 µM
- GI50 (NCI/ADR-RES ovarian): 12.1 µM
- TGI (NCI/ADR-RES ovarian): > 21.8 µM
- GI50 (OVCAR-3 ovarian): 3.84 µM
- TGI (OVCAR-3 ovarian): 17.2 µM
- GI50 (OVCAR-4 ovarian): 7.66 µM
- TGI (OVCAR-4 ovarian): > 21.8 µM
- GI50 (OVCAR-5 ovarian): 11.7 µM
- TGI (OVCAR-5 ovarian): > 21.8 µM
- GI50 (OVCAR-8 ovarian): > 21.8 µM
- TGI (OVCAR-8 ovarian): > 21.8 µM
- GI50 (PC-3 prostate): 8.19 µM
- TGI (PC-3 prostate): > 21.8 µM
- GI50 (RPMI-8226 leukemia): 6.54 µM
- TGI (RPMI-8226 leukemia): > 21.8 µM
- GI50 (RXF 393 renal): 3.21 µM
- TGI (RXF 393 renal): 10.4 µM
- GI50 (SF-268 CNS): 5.56 µM
- TGI (SF-268 CNS): > 21.8 µM
- GI50 (SF-295 CNS): 3.52 µM
- TGI (SF-295 CNS): 7.17 µM
- GI50 (SF-539 CNS): 3.39 µM
- TGI (SF-539 CNS): 6.39 µM
- GI50 (SK-MEL-2 melanoma): 3.85 µM
- TGI (SK-MEL-2 melanoma): 7.72 µM
- GI50 (SK-MEL-28 melanoma): 3.62 µM
- TGI (SK-MEL-28 melanoma): 6.68 µM
- GI50 (SK-MEL-5 melanoma): 3.64 µM
- TGI (SK-MEL-5 melanoma): 6.87 µM
- GI50 (SK-OV-3 ovarian): > 21.8 µM
- TGI (SK-OV-3 ovarian): > 21.8 µM
- GI50 (SN12C renal): > 21.8 µM
- TGI (SN12C renal): > 21.8 µM
- GI50 (SNB-19 CNS): 6.88 µM
- TGI (SNB-19 CNS): > 21.8 µM
- GI50 (SNB-75 CNS): 3.79 µM
- TGI (SNB-75 CNS): > 21.8 µM
- GI50 (SR leukemia): 3.68 µM
- TGI (SR leukemia): 11.5 µM
- GI50 (SW-620 colon): 2950 nM
- TGI (SW-620 colon): 6.86 µM
- GI50 (T-47D breast): 2550 nM
- TGI (T-47D breast): 6.6 µM
- GI50 (TK-10 renal): 16.7 µM
- TGI (TK-10 renal): > 21.8 µM
- GI50 (U251 CNS): 3.76 µM
- TGI (U251 CNS): 8.51 µM
- GI50 (UACC-257 melanoma): 3.18 µM
- TGI (UACC-257 melanoma): 6.3 µM
- GI50 (UACC-62 melanoma): 3.64 µM
- TGI (UACC-62 melanoma): 6.83 µM
- GI50 (UO-31 renal): 3.82 µM
- TGI (UO-31 renal): 10.4 µM
